From patent US20190077795A1, “ARGININE […] INHIBITORS AND USES THEREOF” (Epizyme, Inc., priority 2014, published 2019) come the findings set out here.

Test [1] has as its system mono-methyl arginine in RKO cells. Put plainly: RKO Methylation Assay, In Cell Western (ICW). Format: cell-based. As to conditions: 72 hours.
The target of the next test is T1, human PRMT1 (Homo sapiens, UniProt Q99873).
T1 construct: GST-tagged PRMT1; made in house; host or cells: High Five insect cells (baculovirus, pFastBac1)
T1 sequence (Q99873 with tags, fused parts or gaps): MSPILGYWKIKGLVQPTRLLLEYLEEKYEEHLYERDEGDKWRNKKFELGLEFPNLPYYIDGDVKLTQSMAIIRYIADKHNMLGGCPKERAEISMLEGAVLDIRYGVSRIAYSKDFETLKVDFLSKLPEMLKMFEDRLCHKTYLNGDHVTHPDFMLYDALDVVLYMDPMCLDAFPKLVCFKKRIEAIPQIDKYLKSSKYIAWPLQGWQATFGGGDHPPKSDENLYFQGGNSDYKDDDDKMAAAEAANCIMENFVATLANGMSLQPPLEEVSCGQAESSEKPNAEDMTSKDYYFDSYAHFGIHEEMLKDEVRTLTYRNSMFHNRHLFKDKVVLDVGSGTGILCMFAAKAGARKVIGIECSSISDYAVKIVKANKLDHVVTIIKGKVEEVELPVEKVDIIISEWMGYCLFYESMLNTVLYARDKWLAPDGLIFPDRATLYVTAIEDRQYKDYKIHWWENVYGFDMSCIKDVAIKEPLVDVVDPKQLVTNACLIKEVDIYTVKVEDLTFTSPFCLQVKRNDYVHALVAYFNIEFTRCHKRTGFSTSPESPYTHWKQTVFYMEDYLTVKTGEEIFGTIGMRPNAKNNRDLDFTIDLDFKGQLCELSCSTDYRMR
Kind of test: PRMT1 Biochemical Assay. As to conditions: peptide substrate, 3H-SAM Flashplate assay; read-out: PRMT1 IC50. In a few lines: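 GST-tagged PRMT1 from baculovirus-infected cells, preincubated with compounds 30 min at room temperature in 20 mM Bicine pH 7.6, 1 mM TCEP, 0.005% BSG, 0.002% Tween 20. Reaction started with ³H-SAM plus biotinylated peptide, stopped with 300 µM cold SAM.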

In the next test the target is human PRMT8 (Homo sapiens, UniProt Q9NR22). Put plainly: PRMT8 Biochemical Assay. The note with it: PRMT8 IC50 (uM), peptide substrate, 3H-SAM Flashplate assay.
human PRMT8, sequence (Q9NR22 whole entry): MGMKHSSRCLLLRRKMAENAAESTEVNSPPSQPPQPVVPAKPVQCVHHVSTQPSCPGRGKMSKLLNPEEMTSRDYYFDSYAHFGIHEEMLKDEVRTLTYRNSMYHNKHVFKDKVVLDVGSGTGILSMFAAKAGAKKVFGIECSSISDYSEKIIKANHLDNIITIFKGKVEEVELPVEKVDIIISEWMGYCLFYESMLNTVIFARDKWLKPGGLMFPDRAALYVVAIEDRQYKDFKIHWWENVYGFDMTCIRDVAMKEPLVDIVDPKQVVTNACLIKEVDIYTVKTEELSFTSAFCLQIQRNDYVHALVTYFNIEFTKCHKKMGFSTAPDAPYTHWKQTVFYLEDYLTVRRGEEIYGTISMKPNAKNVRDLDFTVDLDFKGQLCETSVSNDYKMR
A further test addresses T2, human PRMT6 (Homo sapiens, UniProt Q96LA8).
T2 construct: Flag-PRMT6-His; made in house; host or cells: HEK 293F cells (BacMam baculovirus, pFastBacMam)
Put plainly: PRMT6 Biochemical Assay. The note with it: peptide substrate, 3H-SAM Flashplate assay; read-out: PRMT6 IC50.

pIC50: −log10 of the molar value. A value given as a limit tells only on which side of the number the result lay.

T2 sequence (Q96LA8 with tags, fused parts or gaps): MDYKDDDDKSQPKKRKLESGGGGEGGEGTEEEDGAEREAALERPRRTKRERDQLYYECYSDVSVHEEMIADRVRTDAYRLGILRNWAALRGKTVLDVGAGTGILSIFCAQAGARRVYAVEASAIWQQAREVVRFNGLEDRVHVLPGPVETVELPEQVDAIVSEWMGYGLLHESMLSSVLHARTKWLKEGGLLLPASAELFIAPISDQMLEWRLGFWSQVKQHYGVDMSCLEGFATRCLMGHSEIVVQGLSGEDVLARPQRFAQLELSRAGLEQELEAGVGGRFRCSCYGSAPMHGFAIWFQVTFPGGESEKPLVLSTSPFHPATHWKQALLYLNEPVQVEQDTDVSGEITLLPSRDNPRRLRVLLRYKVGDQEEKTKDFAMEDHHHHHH
Text for human PRMT8: S-adenosylmethionine (SAM), S-adenosylhomocysteine (SAH), bicine, Tween20, dimethylsulfoxide (DMSO), bovine skin gelatin (BSG), isopropyl-3-D-thiogalactopyranoside (IPTG), and Tris(2-carboxyethyl)phosphine hydrochloride solution (TCEP) were purchased from Sigma-Aldrich at the highest level of purity possible. ^3H-SAM was purchase from American Radiolabeled Chemicals with a specific activity of 80 Ci/mmol. 384-well streptavidin Flashplates were purchased from PerkinElmer.
E. coli (BL21(DE3) Gold, Stratagene) made competent by the CaCl2 method were transformed with the PRMT8 construct and ampicillin selection. Protein over-expression was accomplished by growing the PRMT8 expressing E. coli clone and inducing expression with 0.3 mM IPTG at 16° C. The culture was grown for 12 hours, harvested by centrifugation, and stored at −80° C. for purification.
GST-tagged PRMT8 was eluted with 50 mM Tris, 2 mM glutathione, pH 7.8. Pooled fractions were cleaved by thrombin (10U) and dialysed in buffer A. GST was removed by reloading the cleaved protein sample onto glutathione sepharose column and PRMT8 was collected in the flow-through fractions. PRMT8 was purified further by ceramic hydroxyapatite chromatography. The column was washed with 50 mM phosphate buffer, 100 mM NaCl, 5% glycerol, 5 mM β-mercaptoethanol, pH 7.8 and PRMT8 was eluted by 100 mM phosphate in the same buffer. Protein was concentrated and buffer was exchanged to 50 mM Tris, 300 mM NaCl, 10% glycerol, 5 mM β-mercaptoethanol, pH 7.8 by ultrafiltration.
General Procedure for PRMT8 Enzyme Assays on Peptide Substrates.
The assays were all performed in a buffer consisting of 20 mM Bicine (pH=7.6), 1 mM TCEP, 0.005% BSG, and 0.002% Tween 20, prepared on the day of use. […] DMSO (1 ul) was added to Columns 11, 12, 23, 24, rows A-H for the maximum signal control and 1 ul of SAH, a known product and inhibitor of PRMT8, was added to columns 11, 12, 23, 24, rows I-P for the minimum signal control. A cocktail (40 ul) containing the PRMT8 enzyme was added by Multidrop Combi (Thermo-Fisher). The compounds were allowed to incubate with PRMT8 for 30 min at room temperature, then a cocktail (10 ul) containing ^3H-SAM and peptide was added to initiate the reaction (final volume=51 ul). […] The assays were stopped by the addition of non-radiolabeled SAM (10 ul) to a final concentration of 400 uM, which dilutes the ^3H-SAM to a level where its incorporation into the peptide substrate is no longer detectable. 50 ul of the reaction in the 384-well polypropylene plate was then transferred to a 384-well Flashplate and the biotinylated peptides were allowed to bind to the streptavidin surface for at least 1 hour before being washed once with 0.1% Tween20 in a Biotek ELx405 plate washer. The plates were then read in a PerkinElmer TopCount plate reader to measure the quantity of ^3H-labeled peptide bound to the Flashplate surface, measured as disintegrations per minute (dpm) or alternatively, referred to as counts per minute (cpm).
Where dpm=disintegrations per minute, cmpd=signal in assay well, and min and max are the respective minimum and maximum signal controls.
Where top and bottom are the normally allowed to float, but may be fixed at 100 or 0 respectively in a 3-parameter fit. The Hill Coefficient normally allowed to float but may also be fixed at 1 in a 3-parameter fit. Y is the % inhibition and X is the compound concentration.

For orientation: pIC50 means the negative decadic logarithm of the IC50, by convention in mol/L. In general, IC50 refers to the concentration at which inhibition is half-maximal. Read a low IC50 as inhibition by little substance. As to `CNCCN(C)Cc1c[nH]nc1-c1ccc(N(C)CCCOc2ccc(OC)cc2)cc1` [Compound 136], the “ICW EC30” value in test [1] worked out at 176.2 nM. Further, the pIC50 at human PRMT1 was 8.28; on human PRMT6, 8.08. The compound also gave an IC50 against human PRMT8 of 0.0124 µM.
On the same counts, the results for `CNCCN(C)Cc1c[nH]nc1-c1ccc(OCCOc2ccc(C(F)(F)F)cc2)cc1` [Compound 138] are 327.8 nM, 8.22, 8.01 and 0.0366 µM.
On the same counts, the results for `CNCCN(C)Cc1c[nH]nc1-c1ccc(OCCOc2ccc(OC(F)(F)F)cc2)cc1` [Compound 140] are 470 nM, 8.17, 8.15 and 0.0526 µM.
As for `CNCCN(C)Cc1cnn(C2CCC2)c1-c1ccc(OC(C)C)cc1` [Compound 141], in test [1], the “ICW EC30” value was 496 nM. The results for the pIC50 on human PRMT1 and at human PRMT6 were 7.18 and 7.06, respectively. At human PRMT8, half-maximal inhibition (IC50) required 0.056 µM.
For `CNCCN(C)Cc1c[nH]nc1-c1ccc(OCCOc2cccc(CO)c2)cc1` [Compound 143] the same measures were 544.3 nM, 8.17, 8.35 and 0.0258 µM.
For `CNCCN(C)Cc1c[nH]nc1-c1ccc(OCCOc2ccc(C(C)C)cc2)cc1` [Compound 144] the same measures were 654.6 nM, 8.19, 8.24 and 0.03 µM.
Consider `CNCCN(C)Cc1c[nH]nc1-c1ccc(OC(COc2ccccc2)COc2ccccc2)cc1` [Compound 146], for which, in test [1], the “ICW EC30” value was 1403 nM. Also, the negative-log IC50 (pIC50) was 8.14 on human PRMT1 and 8.20 on human PRMT6. In addition, half-maximal inhibition against human PRMT8 (IC50) was put at 0.0375 µM.
On the same counts, the results for `CNCCN(C)Cc1c[nH]nc1-c1ccc(OC2CC(OCCN3CCOCC3)C2)cc1` (stereo not shown) [Compound 147] are 4237 nM, 6.96, 7.79 and 0.162 µM.
For `CNCCN(C)Cc1c[nH]nc1-c1ccc(OCCOc2cccc(C(O)CO)c2)cc1` (stereo not shown) [Compound 148] the same measures were 8688 nM, 8.09, 8.20 and 0.0398 µM.
For `CNCCN(C)Cc1c[nH]nc1-c1ccc(OC2CC(OCCC(O)CO)C2)cc1` (stereo not shown) [Compound 149] the same measures were more than 20000 nM, 6.76, 7.54 and 0.342 µM.
For `CN(CCN)Cc1c[nH]nc1-c1ccc2c(c1)OCC(=O)N2` [Compound 152], the “ICW EC30” value in test [1] is more than 20000 nM. The pIC50 on human PRMT1 is 7.18; on human PRMT6, 8.08. The IC50 on human PRMT8 worked out at 0.459 µM.
For `CNCCN(C)Cc1c[nH]nc1-c1ccc(OCCOc2cccc(C)c2)cc1` [Compound 153] the same measures were 177.6 nM, 8.37, 8.50 and 0.0133 µM.
For `CNCCN(C)Cc1ccnn1-c1cc(OCCOC)cc(C(F)(F)F)c1` [Compound 154], in test [1], the “ICW EC30” value was more than 20000 nM. For the same compound, the pIC50 at human PRMT1 was 5.69; at human PRMT6, less than 5.00. The compound further came in with an IC50 against human PRMT8 of 8.45 µM.
